Test results taken from ChEMBL document CHEMBL1649160, “ST-246 antiviral efficacy in a nonhuman primate monkeypox model: determination of the minimal effective dose and human dose justification” (Antimicrob Agents Chemother, 2009).

Key:
[1] = AUC (0 to 24 hrs) in human at 4.2 mg/kg, po administered as single dose under fed condition measured after 1 day; format: ADME, organism-based; parameters: time < 24 hr, dose 4.2 mg/kg, route oral; details: plasma
[2] = AUC (0 to 24 hrs) in human at 13.3 mg/kg, po administered as single dose under fed condition measured after 1 day; format: ADME, organism-based; parameters: time < 24 hr, dose 13.3 mg/kg, route oral; details: plasma
[3] = Cmax in monkeypox virus infected cynomolgus monkey at 30 mg/kg, po qd for 14 days administered under fed condition measured after 14 days; format: ADME, organism-based, Macaca fascicularis; parameters: dose 30 mg/kg, route oral; details: in vivo
[4] = Cmax in monkeypox virus infected cynomolgus monkey at 30 mg/kg, po qd for 14 days administered under fed condition measured after 7 days; format: ADME, organism-based, Macaca fascicularis; parameters: dose 30 mg/kg, route oral; details: in vivo
[5] = AUC (0 to 24 hrs) in human at 4.2 mg/kg, po qd for 6 days administered under fed condition measured after 6 days; format: ADME, organism-based; parameters: time < 24 hr, dose 4.2 mg/kg, route oral; details: plasma
[6] = AUC (0 to 24 hrs) in human at 6.7 mg/kg, po administered as single dose under fed condition measured after 1 day; format: ADME, organism-based; parameters: time < 24 hr, dose 6.7 mg/kg, route oral; details: plasma
[7] = Cmax in human at 4.2 mg/kg, po administered as single dose under fed condition measured after 1 day; format: ADME, organism-based; parameters: dose 4.2 mg/kg, route oral; details: in vivo
[8] = AUC (0 to 24 hrs) in human at 4.2 mg/kg, po qd for 21 days administered under fed condition measured after 21 days; format: ADME, organism-based; parameters: time < 24 hr, dose 4.2 mg/kg, route oral; details: plasma
[9] = Cmax in monkeypox virus infected cynomolgus monkey at 30 mg/kg, po administered as single dose under fed condition measured after 1 day; format: ADME, organism-based, Macaca fascicularis; parameters: dose 30 mg/kg, route oral; details: in vivo
[10] = Cmax in human at 4.2 mg/kg, po qd for 21 days administered under fed condition measured after 21 days; format: ADME, organism-based; parameters: dose 4.2 mg/kg, route oral; details: in vivo
[11] = Cmax in human at 6.7 mg/kg, po administered as single dose under fed condition measured after 1 day; format: ADME, organism-based; parameters: dose 6.7 mg/kg, route oral; details: in vivo
[12] = Cmax in human at 13.3 mg/kg, po administered as single dose under fed condition measured after 1 day; format: ADME, organism-based; parameters: dose 13.3 mg/kg, route oral; details: in vivo
[13] = AUC (0 to 24 hrs) in human at 6.7 mg/kg, po qd for 6 days administered under fed condition measured after 6 days; format: ADME, organism-based; parameters: time < 24 hr, dose 6.7 mg/kg, route oral; details: plasma
[14] = Cmax in human at 6.7 mg/kg, po qd for 21 days administered under fed condition measured after 21 days; format: ADME, organism-based; parameters: dose 6.7 mg/kg, route oral; details: in vivo
[15] = AUC (0 to 24 hrs) in monkeypox virus infected cynomolgus monkey at 10 mg/kg, po qd for 14 days administered under fed condition measured after 7 days; format: ADME, organism-based, Macaca fascicularis; parameters: time < 24 hr, dose 10 mg/kg, route oral; details: plasma
[16] = AUC (0 to 24 hrs) in human at 6.7 mg/kg, po qd for 21 days administered under fed condition measured after 21 days; format: ADME, organism-based; parameters: time < 24 hr, dose 6.7 mg/kg, route oral; details: plasma
[17] = AUC (0 to 24 hrs) in monkeypox virus infected cynomolgus monkey at 10 mg/kg, po administered as single dose under fed condition measured after 1 day; format: ADME, organism-based, Macaca fascicularis; parameters: time < 24 hr, dose 10 mg/kg, route oral; details: plasma
[18] = AUC (0 to 24 hrs) in monkeypox virus infected cynomolgus monkey at 30 mg/kg, po qd for 14 days administered under fed condition measured after 14 days; format: ADME, organism-based, Macaca fascicularis; parameters: time < 24 hr, dose 30 mg/kg, route oral; details: plasma
[19] = AUC (0 to 24 hrs) in human at 13.3 mg/kg, po qd for 6 days administered under fed condition measured after 6 days; format: ADME, organism-based; parameters: time < 24 hr, dose 13.3 mg/kg, route oral; details: plasma
[20] = Cmax in human at 13.3 mg/kg, po qd for 21 days administered under fed condition measured after 21 days; format: ADME, organism-based; parameters: dose 13.3 mg/kg, route oral; details: in vivo
[21] = Cmax in monkeypox virus infected cynomolgus monkey at 10 mg/kg, po qd for 14 days administered under fed condition measured after 14 days; format: ADME, organism-based, Macaca fascicularis; parameters: dose 10 mg/kg, route oral; details: in vivo
[22] = Cmax in human at 4.2 mg/kg, po qd for 6 days administered under fed condition measured after 6 days; format: ADME, organism-based; parameters: dose 4.2 mg/kg, route oral; details: in vivo
[23] = AUC (0 to 24 hrs) in human at 13.3 mg/kg, po qd for 21 days administered under fed condition measured after 21 days; format: ADME, organism-based; parameters: time < 24 hr, dose 13.3 mg/kg, route oral; details: plasma
[24] = AUC (0 to 24 hrs) in monkeypox virus infected cynomolgus monkey at 20 mg/kg, po administered as single dose under fed condition measured after 1 day; format: ADME, organism-based, Macaca fascicularis; parameters: time < 24 hr, dose 20 mg/kg, route oral; details: plasma
[25] = AUC (0 to 24 hrs) in monkeypox virus infected cynomolgus monkey at 10 mg/kg, po qd for 14 days administered under fed condition measured after 14 days; format: ADME, organism-based, Macaca fascicularis; parameters: time < 24 hr, dose 10 mg/kg, route oral; details: plasma
[26] = Cmax in monkeypox virus infected cynomolgus monkey at 20 mg/kg, po administered as single dose under fed condition measured after 1 day; format: ADME, organism-based, Macaca fascicularis; parameters: dose 20 mg/kg, route oral; details: in vivo
[27] = Cmax in monkeypox virus infected cynomolgus monkey at 10 mg/kg, po qd for 14 days administered under fed condition measured after 7 days; format: ADME, organism-based, Macaca fascicularis; parameters: dose 10 mg/kg, route oral; details: in vivo
[28] = AUC (0 to 24 hrs) in monkeypox virus infected cynomolgus monkey at 30 mg/kg, po administered as single dose under fed condition measured after 1 day; format: ADME, organism-based, Macaca fascicularis; parameters: time < 24 hr, dose 30 mg/kg, route oral; details: plasma
[29] = AUC (0 to 24 hrs) in monkeypox virus infected cynomolgus monkey at 30 mg/kg, po qd for 14 days administered under fed condition measured after 7 days; format: ADME, organism-based, Macaca fascicularis; parameters: time < 24 hr, dose 30 mg/kg, route oral; details: plasma
[30] = Cmax in human at 13.3 mg/kg, po qd qd for 6 days administered under fed condition measured after 6 days; format: ADME, organism-based; parameters: dose 13.3 mg/kg, route oral; details: in vivo
[31] = Cmax in monkeypox virus infected cynomolgus monkey at 10 mg/kg, po administered as single dose under fed condition measured after 1 day; format: ADME, organism-based, Macaca fascicularis; parameters: dose 10 mg/kg, route oral; details: in vivo
[32] = Cmax in human at 6.7 mg/kg, po qd for 6 days administered under fed condition measured after 6 days; format: ADME, organism-based; parameters: dose 6.7 mg/kg, route oral; details: in vivo

For `O=C(NN1C(=O)[C@@H]2[C@@H]3C=C[C@@H]([C@H]4C[C@@H]34)[C@@H]2C1=O)c1ccc(C(F)(F)F)cc1` [TECOVIRIMAT], the AUC(0-t) at 24 h [1] was 9100 ng·h/mL, the AUC(0-t) at 24 h [2] was 21000 ng·h/mL and the Cmax [3] was 1190 ng/mL. The Cmax [4] was 1510 ng/mL, the AUC at 24 h [5] was 11900 ng·h/mL and the AUC(0-t) at 24 h [6] was 13100 ng·h/mL. It also gave a Cmax [7] of 985 ng/mL, an AUC at 24 h [8] of 10100 ng·h/mL and a Cmax [9] of 1150 ng/mL. For the same molecule, the Cmax [10] was 1100 ng/mL, the Cmax [11] was 1390 ng/mL and the Cmax [12] was 2280 ng/mL. It also gave an AUC at 24 h [13] of 15400 ng·h/mL, a Cmax [14] of 1460 ng/mL and an AUC at 24 h [15] of 12600 ng·h/mL. For the same molecule, the AUC at 24 h [16] was 16200 ng·h/mL, the AUC(0-t) at 24 h [17] was 13700 ng·h/mL and the AUC at 24 h [18] was 15800 ng·h/mL. The AUC at 24 h [19] was 23400 ng·h/mL, the Cmax [20] was 2440 ng/mL and the Cmax [21] was 1080 ng/mL. The Cmax [22] was 1210 ng/mL, the AUC at 24 h [23] was 22700 ng·h/mL and the AUC(0-t) at 24 h [24] was 18400 ng·h/mL. For the same molecule, the AUC at 24 h [25] was 13500 ng·h/mL, the Cmax [26] was 1260 ng/mL and the Cmax [27] was 1020 ng/mL. The AUC(0-t) at 24 h [28] was 18100 ng·h/mL, the AUC at 24 h [29] was 20700 ng·h/mL and the Cmax [30] was 2340 ng/mL. It also gave a Cmax [31] of 1010 ng/mL and a Cmax [32] of 1300 ng/mL.
